Experimental findings from patent US9907637B2, “Modular bioresorbable or biomedical, biologically active supramolecular materials” (SupraPolix B.V., priority 2005, dated 2018) are described below.

A short description of data set [1]: Extraction of peptide out of polymer films with water, LC-MS. The class given is physicochemical. The note with it: 2 hours at 37° C. in 1 mL water, 4 mole % peptide.
Assay in data set [2]: as above
The class given is physicochemical. As to conditions: for peptide dissolved: 80 minutes at 37° C. in a total volume of 5 mL water, 4 mole % peptide; for extraction: water 37° C., 4 mole % peptide in film of polymer of example 14. The procedure: The extraction of the peptide of example 18 and the peptide GRGDS without a UPy-unit out of films of example 29a was investigated with LC-MS measurements. The amount of peptide that was mixed in the polymeric materials is in both cases 4 mole %. Calibration was performed by quantification of one fragment of the parent ion (MS^2) of the peptides using different concentrations of the peptides. The surface area of the corresponding peak (in the total ion count) was calculated with the ICIS algorithm. The extraction experiments were performed as follows: the film was incubated at 37° C. for 5 minutes in 1 mL water, then the water was removed and the concentration of peptide was measured with the described LC-MS procedure (time-point: 5 minutes); another 1 mL water was added to the film which was subsequently incubated again for 5 minutes at 37° C. followed by removal of the water which was analysed with the LC-MS method (time-point: 10 minutes); another 1 mL water was added to the film and the sample was incubated for 10 minutes at 37° C. followed by removal of the water which was analysed with the LC-MS method (time-point: 20 minutes); incubation at 37° C. in another 1 mL water for 20 minutes, followed by removal of the water which was analysed with the LC-MS method (time-point: 40 minutes); and incubation at 37° C. in another 1 mL water for 40 minutes, followed by removal of the water which was analysed with the LC-MS method (time-point: 80 minutes).

For GRGDS, the peptide dissolved was 101% in data set [1] and 105% in data set [2]. Further, the extraction in data set [2] (time 5 min) was found to be 91%; in data set [2] (time 10 min), 97%; in data set [2] (time 20 min), 100%. In data set [2] (within 5 minutes, water at 37° C.), the “dissolution of peptide from film” value was “almost all of the peptide is dissolved”.
Turning to UPy-GRGDS [Example 18], the peptide dissolved in data set [1] came to 64%; in data set [2] it was 76%. The results for the extraction in data set [2] (time 5 min), in data set [2] (time 10 min) and in data set [2] (time 20 min) were 39%, 60% and 76%, respectively.
